Reference: US20260317340A1, “COMPOUNDS, COMPOSITIONS, AND METHODS OF TREATING DISORDERS” (Chengdu Anticancer Bioscience, Ltd., priority 2023, published 2026)
Where two headings read alike, the source gives them in different places.

Legend:
[1] = system: RPE-Neo or RPE-MYC or RPE-MYC expressing an EGFP-Histone 2B fusion protein; assay: Phenotypic screening assay: arrest in mitosis, change in DNA content (polyploidy), cell death; assay type: cell-based; conditions: 20 nM to 20 μM, 24, 48 or 72 hours
Procedure: (§1) Human cancer cell lines were obtained from ATCC and cultured in DMEM (Gibco, Cleveland, TN, USA) supplemented with 5% fetal bovine serum (Gibco), penicillin (100 U/mL)-streptomycin (100 μg/mL) (Gibco, Cat. No. 15140-122), 2 mM L-glutamine (Gibco, 200 mM solution, Cat. No. 25030081), and 1 mM sodium pyruvate (Gibco, 100 mM solution, Cat. No. 11360070) at 37° C. in a humidified incubator that was maintained at 5% CO2.
Screening was conducted as described before (Li et al. 2019). Briefly, RPE-Neo or RPE-MYC or RPE-MYC expressing an EGFP-Histone 2B fusion protein were passaged as batches of 96-well plates, 18-24 hours before exposure to the chemical compounds of the present disclosure at concentrations from 20 nM to 20 μM. At 24, 48 or 72 hours after initiation of treatment, cells were analyzed for either an arrest in mitosis or a change in DNA content by GE IN-Cell Analyzer 2000. MTT assays of cellular proliferation were performed as previously described (Li et al. 2019).
(§2) As set forth in table 2 below, an values of greater than or equal to 1 nM and less than or equal to 1.0 μM is marked “A”; a value greater than 1.00 μM and less than or equal to 10.0 μM is marked “B”; a value greater than 10.0 μM and less than or equal to 30.0 μM is marked “C”; and a value greater than 30.0 μM and less than 1000 μM is marked “D.”

RPE-Neo or RPE-MYC cells = assay: MTT assay of cellular proliferation (proliferative arrest); assay type: cell-based; conditions: for minimal effective concentration: read-out: Min. Effective conc. for Proliferative arrest (>50%)
Procedure: as §1
Screening was conducted as described before (Li et al. 2019). Briefly, RPE-Neo or RPE-MYC or RPE-MYC expressing an EGFP-Histone 2B fusion protein were passaged as batches of 96-well plates, 18-24 hours before exposure to the chemical compounds of the present disclosure at concentrations from 20 nM to 20 μM. At 24, 48 or 72 hours after initiation of treatment, cells were analyzed for either an arrest in mitosis or a change in DNA content by GE IN-Cell Analyzer 2000. MTT assays of cellular proliferation were performed as previously described (Li et al. 2019). […]
as §2

[2] = read-out: Min. Effective conc. for Along with Cell Death
[3] = ≥5%, read-out: Min. Effective conc. for Mitotic Arrest (≥5%)
[4] = ≥5%, read-out: Min. Effective conc. for Polyploidy (≥5%)

Row | Compound | minimal effective concentration [1, 2] | minimal effective concentration [1, 3] | minimal effective concentration [1, 4] | minimal effective concentration (RPE-Neo or RPE-MYC cells) | Min. Effective conc. for Along with Cell Death [1] | Min. Effective conc. for Mitotic Arrest (≥5%) ([1]; ≥5%) | Min. Effective conc. for Polyploidy (≥5%) ([1]; ≥5%) | Min. Effective conc. for Proliferative arrest (>50%) (RPE-Neo or RPE-MYC cells; >50%)
1 | Cc1ccc(CN2C(=O)CC(c3nnc(C4CC4)o3)=C(Br)c3scc(C)c32)cc1F [Compound 1, 8-Bromo-7-(5-cyclopropyl-1,3,4-oxadiazol-2-yl)-4-(3-fluoro-4-methylbenzyl)-3-methyl-4,6-dihydro-5H-thieno[3,2-b]azepin-5-one] | 0.001 to 1 µM | 0.001 to 1 µM | 0.001 to 1 µM | 0.001 to 1 µM | – | – | – | –
2 | Cc1ccc(CN2C(=O)CC(c3nnc(C4CC4)o3)=C(Br)c3ccc(OCCOCCOCCOCCOc4ccc5c(c4)N(Cc4ccc(C)c(F)c4)C(=O)CC(c4nnc(C6CC6)o4)=C5Br)cc32)cc1F [Compound 2, 8,8′-((((Oxybis(ethane-2,1-diyl))bis(oxy))bis(ethane-2,1-diyl))bis(oxy))bis(5-bromo-4-(5-cyclopropyl-1,3,4-oxadiazol-2-yl)-1-(3-fluoro-4-methylbenzyl)-1,3-dihydro-2H-benzo[b]azepin-2-one)] | 1 to 10 µM | 1 to 10 µM | 1 to 10 µM | 1 to 10 µM | – | – | – | –
3 | Cc1ccc(CN2C(=O)CC(c3nnc(C4CC4)o3)=C(Br)c3ccc(OCCOCCOCCOc4ccc5c(c4)N(Cc4ccc(C)c(F)c4)C(=O)CC(c4nnc(C6CC6)o4)=C5Br)cc32)cc1F [Compound 3, 8,8′-(((Ethane-1,2-diylbis(oxy))bis(ethane-2,1-diyl))bis(oxy))bis(5-bromo-4-(5-cyclopropyl-1,3,4-oxadiazol-2-yl)-1-(3-fluoro-4-methylbenzyl)-1,3-dihydro-2H-benzo[b]azepin-2-one)] | 1 to 10 µM | 1 to 10 µM | 1 to 10 µM | 1 to 10 µM | – | – | – | –
4 | COc1ccc(CN2C(=O)CC(c3nnc(C4CC4)o3)=C(Br)c3cccc(F)c32)cc1 [Compound 4, 5-bromo-4-(5-cyclopropyl-1,3,4-oxadiazol-2-yl)-9-fluoro-1-(4-methoxybenzyl)-1,3-dihydro-2H-benzo[b]azepin-2-one] | 0.001 to 1 µM | 0.001 to 1 µM | 0.001 to 1 µM | 0.001 to 1 µM | – | – | – | –
5 | COc1ccc(CN2C(=O)CC(c3nnc(C4CC4)o3)=C(Br)c3ccccc32)c(F)c1 [Compound 5, 5-Bromo-4-(5-cyclopropyl-1,3,4-oxadiazol-2-yl)-1-(2-fluoro-4-methoxybenzyl)-1,3-dihydro-2H-benzo[b]azepin-2-one] | 0.001 to 1 µM | 0.001 to 1 µM | 0.001 to 1 µM | 0.001 to 1 µM | – | – | – | –
6 | CCc1ccc(CN2C(=O)CC(c3nnc(C4CC4)o3)=C(Br)c3ccccc32)cc1 [Compound 6, 5-Bromo-4-(5-cyclopropyl-1,3,4-oxadiazol-2-yl)-1-(4-ethylbenzyl)-1,3-dihydro-2H-benzo[b]azepin-2-one] | 0.001 to 1 µM | 0.001 to 1 µM | 0.001 to 1 µM | 0.001 to 1 µM | – | – | – | –
7 | COc1ccc(CN2C(=O)CC(c3cnco3)=C(Br)c3ccccc32)cc1 [Compound 7, 5-Bromo-1-(4-methoxybenzyl)-4-(oxazol-5-yl)-1,3-dihydro-21-benzo[b]azepin-2-one] | – | – | – | – | A (greater than or equal to 1 nM and less than or equal to 1.0 μM) | A (greater than or equal to 1 nM and less than or equal to 1.0 μM) | A (greater than or equal to 1 nM and less than or equal to 1.0 μM) | A (greater than or equal to 1 nM and less than or equal to 1.0 μM)
8 | COc1ccc(CN2C(=O)CC(c3ccon3)=C(Br)c3ccccc32)cc1 [Compound 8, 5-Bromo-4-(isoxazol-3-yl)-1-(4-methoxybenzyl)-1,3-dihydro-2H-benzo[b]azepin-2-one] | 0.001 to 1 µM | 0.001 to 1 µM | 0.001 to 1 µM | 0.001 to 1 µM | – | – | – | –
9 | COc1ccc(CN2C(=O)CC(c3nnc(C)o3)=C(Br)c3ccccc32)cc1 [Compound 9, 5-Bromo-1-(4-methoxybenzyl)-4-(5-methyl-1,3,4-oxadiazol-2-yl)-1,3-dihydro-2H-benzo[b]azepin-2-one] | 0.001 to 1 µM | 0.001 to 1 µM | 0.001 to 1 µM | 0.001 to 1 µM | – | – | – | –
10 | COc1ccc(CN2C(=O)CC(c3nnc(N)s3)=C(Br)c3ccccc32)cc1 [Compound 10, 4-(5-Amino-1,3,4-thiadiazol-2-yl)-5-bromo-1-(4-methoxybenzyl)-1,3-dihydro-2H-benzo[b]azepin-2-one] | 0.001 to 1 µM | 0.001 to 1 µM | 0.001 to 1 µM | 0.001 to 1 µM | – | – | – | –
11 | COc1ccc(CN2C(=O)CC(c3ncc(C)o3)=C(Br)c3ccccc32)cc1 [Compound 11, 5-Bromo-1-(4-methoxybenzyl)-4-(5-methyloxazol-2-yl)-1,3-dihydro-2H-benzo[b]azepin-2-one] | 0.001 to 1 µM | 0.001 to 1 µM | 0.001 to 1 µM | 0.001 to 1 µM | – | – | – | –
12 | COC(=O)C1=Cc2ccccc2N(Cc2ccc(C)c(F)c2)C(=O)C1 [Compound 12, methyl 1-(3-fluoro-4-methylbenzyl)-2-oxo-2,3-dihydro-1H-benzo[b]azepine-4-carboxylate] | 0.001 to 1 µM | 0.001 to 1 µM | 0.001 to 1 µM | 0.001 to 1 µM | – | – | – | –
13 | Cc1ccc(CN2C(=O)CC(c3nnc(C4CC4)o3)=Cc3ccccc32)cc1F [Compound 13, 4-(5-cyclopropyl-1,3,4-oxadiazol-2-yl)-1-(3-fluoro-4-methylbenzyl)-1,3-dihydro-2H-benzo[b]azepin-2-one] | 0.001 to 1 µM | 0.001 to 1 µM | 0.001 to 1 µM | 0.001 to 1 µM | – | – | – | –
14 | COc1ccc(CN2C(=O)CC(c3nnco3)=Cc3ccc(Br)cc32)cc1 [Compound 14, 8-bromo-1-(4-methoxybenzyl)-4-(1,3,4-oxadiazol-2-yl)-1,3-dihydro-2H-benzo[b]azepin-2-one] | 0.001 to 1 µM | 0.001 to 1 µM | 0.001 to 1 µM | 0.001 to 1 µM | – | – | – | –
15 | COc1ccc(CN2C(=O)CC(c3nnc(C)o3)=Cc3ccc(Br)cc32)cc1 [Compound 15, 8-bromo-1-(4-methoxybenzyl)-4-(5-methyl-1,3,4-oxadiazol-2-yl)-1,3-dihydro-2H-benzo[b]azepin-2-one] | 1 to 10 µM | 1 to 10 µM | 1 to 10 µM | 1 to 10 µM | – | – | – | –
16 | COc1ccc(CN2C(=O)CC(c3nnc(C)o3)=Cc3ccc(-c4cnn(C)c4)cc32)cc1 [Compound 16, 1-(4-methoxybenzyl)-4-(5-methyl-1,3,4-oxadiazol-2-yl)-8-(1-methyl-1H-pyrazol-4-yl)-1,3-dihydro-2H-benzo[b]azepin-2-one] | 0.001 to 1 µM | 0.001 to 1 µM | 0.001 to 1 µM | 0.001 to 1 µM | – | – | – | –
17 | COc1ccc(CN2C(=O)CC3(c4ncc(C)o4)CC3c3ccc(Br)cc32)cc1 (stereo not shown) [Compound 17, 6-bromo-4-(4-methoxybenzyl)-1a-(5-methyloxazol-2-yl)-1a,2,4,8b-tetrahydrobenzo[b]cyclopropa[d]azepin-3(1H)-one] | 1 to 10 µM | 1 to 10 µM | 1 to 10 µM | 1 to 10 µM | – | – | – | –
18 | Cc1cnc(C2=Cc3ccccc3N(Cc3ccc(C)c(F)c3)C(=O)C2)o1 [Compound 18, 1-(3-fluoro-4-methylbenzyl)-4-(5-methyloxazol-2-yl)-1,3-dihydro-2H-benzo[b]azepin-2-one] | 0.001 to 1 µM | 0.001 to 1 µM | 0.001 to 1 µM | 0.001 to 1 µM | – | – | – | –
19 | Cc1cnc(C2=Cc3ccc(Br)cc3N(Cc3ccc(C)c(F)c3)C(=O)C2)o1 [Compound 19, 8-bromo-1-(3-fluoro-4-methylbenzyl)-4-(5-methyloxazol-2-yl)-1,3-dihydro-2H-benzo[b]azepin-2-one] | 0.001 to 1 µM | 0.001 to 1 µM | 0.001 to 1 µM | 0.001 to 1 µM | – | – | – | –
